Measurements from the NIST ThermoML archive (doi:10.1016/j.jct.2016.12.012).
Where “and” joins values, the source holds several entries; their conditions need not be identical. Equal entries are not always repeated. ± gives the expanded uncertainty stated by the source.

What was measured:
[1] = Molar enthalpy of transition or fusion; conditions: DSC
[2] = for Normal melting temperature: DTA

COc1ccc(C(C)=O)cc1 [4'-methoxyacetophenone]
Crystal
Conditions | Molar enthalpy of transition or fusion [kcal/mol] | Normal melting temperature [°C]
[1] | 4.02 ± 0.167 | –
[2] | – | 37.2 ± 0.4

[2]
Conditions | vapor or sublimation pressure [kPa]
296.23 K, Crystal, Closed cell (Static) method | 0.00059 ± 0.00011
298.19 K, Crystal, Closed cell (Static) method | 0.00075 ± 0.00011
300.19 K, Crystal, Closed cell (Static) method | 0.00096 ± 0.00011
302.13 K, Metastable liquid, Closed cell (Static) method | 0.00143 ± 0.00012
302.18 K, Crystal, Closed cell (Static) method | 0.00121 ± 0.00012
304.14 K, Metastable liquid, Closed cell (Static) method | 0.00174 ± 0.00012
304.15 K, Crystal, Closed cell (Static) method | 0.00153 ± 0.00012
306.09 K, Metastable liquid, Closed cell (Static) method | 0.00209 ± 0.00013
306.12 K, Crystal, Closed cell (Static) method | 0.00192 ± 0.00013
308.1 K, Crystal, Closed cell (Static) method | 0.00239 ± 0.00014
308.12 K, Metastable liquid, Closed cell (Static) method | 0.00251 ± 0.00014
310.08 K, Metastable liquid, Closed cell (Static) method | 0.00301 ± 0.00016
312.06 K, Closed cell (Static) method, Liquid | 0.0036 ± 0.00018
314.2 K, Closed cell (Static) method, Liquid | 0.00436 ± 0.0002
316.08 K, Closed cell (Static) method, Liquid | 0.00516 ± 0.00023
318.02 K, Closed cell (Static) method, Liquid | 0.0061 ± 0.00026
320.04 K, Closed cell (Static) method, Liquid | 0.00716 ± 0.0003
321.98 K, Closed cell (Static) method, Liquid | 0.00847 ± 0.00035
324.01 K, Closed cell (Static) method, Liquid | 0.01002 ± 0.00041
326 K, Closed cell (Static) method, Liquid | 0.01174 ± 0.00047
327.92 K, Closed cell (Static) method, Liquid | 0.01375 ± 0.00053
329.93 K, Closed cell (Static) method, Liquid | 0.01614 ± 0.00056
331.9 K, Closed cell (Static) method, Liquid | 0.0189 ± 0.00061
333.88 K, Closed cell (Static) method, Liquid | 0.02202 ± 0.00065
335.86 K, Closed cell (Static) method, Liquid | 0.02563 ± 0.00071
337.93 K, Closed cell (Static) method, Liquid | 0.02998 ± 0.00078
339.82 K, Closed cell (Static) method, Liquid | 0.03463 ± 0.00085
341.89 K, Closed cell (Static) method, Liquid | 0.04012 ± 0.00093
343.72 K, Closed cell (Static) method, Liquid | 0.04593 ± 0.001
345.84 K, Closed cell (Static) method, Liquid | 0.05323 ± 0.0011
347.69 K, Closed cell (Static) method, Liquid | 0.06033 ± 0.0012
349.8 K, Closed cell (Static) method, Liquid | 0.06953 ± 0.0014
351.63 K, Closed cell (Static) method, Liquid | 0.07823 ± 0.0015
353.72 K, Closed cell (Static) method, Liquid | 0.09003 ± 0.0017
355.73 K, Closed cell (Static) method, Liquid | 0.1035 ± 0.0019

CC(=O)Oc1ccc(C(C)=O)cc1 [4-acetoxyacetophenone]
Conditions | Molar enthalpy of transition or fusion, Crystal 1 [kcal/mol] | Molar enthalpy of transition or fusion, Crystal 2 [kcal/mol] | Normal melting temperature, Crystal 1 [°C] | Triple point temperature, Crystal 2, DSC [K]
[1] | 4.97 ± 0.167 | 0.143 ± 0.0956 | – | –
[2] | – | – | 51.0 ± 0.6 | 310.1 ± 0.8

[2]
Conditions | vapor or sublimation pressure
298.12 K, Crystal 2, Calculated from knudsen effusion weight loss | 9.3e-05 ± 2e-05 kPa
299.15 K, Crystal 2, Calculated from knudsen effusion weight loss | 0.000105 ± 2e-05 kPa and 0.000106 ± 2e-05 kPa
300.3 K, Crystal 2, Calculated from knudsen effusion weight loss | 0.000123 ± 2e-05 kPa
301.34 K, Crystal 2, Calculated from knudsen effusion weight loss | 0.000143 ± 2.1e-05 kPa and 0.000142 ± 2.1e-05 kPa and 0.000141 ± 2.1e-05 kPa
302.25 K, Crystal 2, Calculated from knudsen effusion weight loss | 0.000159 ± 2.1e-05 kPa
303.23 K, Crystal 2, Calculated from knudsen effusion weight loss | 0.000185 ± 2.1e-05 kPa and 0.000184 ± 2.1e-05 kPa
304.1 K, Crystal 2, Calculated from knudsen effusion weight loss | 0.000202 ± 2.1e-05 kPa and 0.000205 ± 2.1e-05 kPa
305.13 K, Crystal 2, Calculated from knudsen effusion weight loss | 0.00023 ± 2.2e-05 kPa and 0.000232 ± 2.2e-05 kPa and 0.000229 ± 2.2e-05 kPa
306.26 K, Crystal 2, Calculated from knudsen effusion weight loss | 0.000268 ± 2.2e-05 kPa and 0.000266 ± 2.2e-05 kPa
307.14 K, Crystal 2, Calculated from knudsen effusion weight loss | 0.0003 ± 2.3e-05 kPa and 0.000301 ± 2.3e-05 kPa
308.25 K, Crystal 2, Calculated from knudsen effusion weight loss | 0.000347 ± 2.3e-05 kPa and 0.000346 ± 2.3e-05 kPa
309.29 K, Crystal 2, Calculated from knudsen effusion weight loss | 0.000397 ± 2.4e-05 kPa and 0.000395 ± 2.4e-05 kPa and 0.000394 ± 2.4e-05 kPa
315 K, Crystal 1, Closed cell (Static) method | 0.00078 ± 0.00011 kPa
316 K, Crystal 1, Closed cell (Static) method | 0.00087 ± 0.00012 kPa
317 K, Crystal 1, Closed cell (Static) method | 0.00098 ± 0.00012 kPa
317.96 K, Crystal 1, Closed cell (Static) method | 0.00109 ± 0.00012 kPa
318.99 K, Crystal 1, Closed cell (Static) method | 0.00123 ± 0.00012 kPa
319.96 K, Crystal 1, Closed cell (Static) method | 0.00139 ± 0.00012 kPa
321.01 K, Crystal 1, Closed cell (Static) method | 0.00155 ± 0.00013 kPa
321.89 K, Crystal 1, Closed cell (Static) method | 0.00173 ± 0.00013 kPa
322.88 K, Crystal 1, Closed cell (Static) method | 0.00195 ± 0.00013 kPa
323.91 K, Crystal 1, Closed cell (Static) method | 0.00218 ± 0.00014 kPa

[2], Liquid, Closed cell (Static) method
Conditions | vapor or sublimation pressure [kPa]
328.88 K | 0.00341 ± 0.00017
330.91 K | 0.00406 ± 0.0002
332.89 K | 0.00478 ± 0.00022
334.84 K | 0.00555 ± 0.00025
336.85 K | 0.00658 ± 0.00028
338.81 K | 0.00777 ± 0.00033
340.85 K | 0.00908 ± 0.00037
342.77 K | 0.01045 ± 0.00042
344.77 K | 0.01225 ± 0.00049
346.74 K | 0.01408 ± 0.00053
348.68 K | 0.01633 ± 0.00057
350.65 K | 0.01885 ± 0.00061
352.66 K | 0.02182 ± 0.00065
354.62 K | 0.02505 ± 0.0007
356.57 K | 0.02907 ± 0.00076
358.59 K | 0.03305 ± 0.00082
360.49 K | 0.03795 ± 0.0009
362.51 K | 0.04335 ± 0.00098
364.46 K | 0.04961 ± 0.0011
366.46 K | 0.05645 ± 0.0012
368.38 K | 0.06404 ± 0.0013
370.41 K | 0.07307 ± 0.0014
372.31 K | 0.08205 ± 0.0016
374.34 K | 0.09319 ± 0.0018
376.33 K | 0.1048 ± 0.0019
378.32 K | 0.1186 ± 0.0021
